# Laboratory results: patent US20210017174A1, “IDENTIFICATION AND USE OF ERK5 INHIBITOR” (Bayer Aktiengesellschaft, priority 2018, published 2021)
# Molecular target: T1, ERK5 (Homo sapiens, UniProt Q13164)
# T1 construct: host or cells: E. coli
# Experiment: TR-FRET-based Erk5 activity inhibition assay (biochemical assay ERK5)
# Conditions: @ 20 μM; read-out: inhibition in biochemical ERK5 assay at a single concentration
# T1 sequence (Q13164 1-398): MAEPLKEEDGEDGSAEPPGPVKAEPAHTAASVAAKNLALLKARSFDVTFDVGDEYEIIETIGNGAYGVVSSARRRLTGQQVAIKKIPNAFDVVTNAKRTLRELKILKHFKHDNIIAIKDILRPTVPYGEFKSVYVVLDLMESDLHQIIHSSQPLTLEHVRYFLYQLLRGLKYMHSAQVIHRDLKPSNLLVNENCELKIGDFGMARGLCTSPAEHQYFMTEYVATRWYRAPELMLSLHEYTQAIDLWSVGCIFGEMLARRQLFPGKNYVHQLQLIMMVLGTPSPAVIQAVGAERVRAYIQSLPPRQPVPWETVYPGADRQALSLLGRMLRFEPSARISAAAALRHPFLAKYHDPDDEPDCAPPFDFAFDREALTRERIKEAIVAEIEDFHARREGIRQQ
row,inhibition at 20 µM [%],Compound
1,16,"COc1cc2ncnc(C3CCN(C(=O)c4ccccc4OC(F)(F)F)CC3)c2cc1OC [Example 28, [4-(6,7-Dimethoxyquinazolin-4-yl)piperidin-1-yl][2-(trifluoromethoxy)phenyl]-methanone]"
2,44.2,"O=C(O)c1ccc2c(C3CCN(C(=O)c4ccc(OC(F)(F)F)cc4)CC3)ncnc2c1 [Example 32, 4-{1-[4-(Trifluoromethoxy)benzoyl]piperidin-4-yl}quinazoline-7-carboxylic Acid]"

# Same assay, conditions: TR-FRET, 250 μM ATP, 1 μM substrate peptide, 60 min at 22° C.; read-out: IC50 value biochemiocal ERK5 asssay
row,Compound,IC50 [nM]
1,"COc1cc2ncnc(C3CCN(C(=O)c4ccc(Cl)cc4)CC3)c2cc1OC [Example 4, 4-[1-(4-Chlorobenzoyl)piperidin-4-yl]-6,7-dimethoxyquinazoline]",770
2,"COc1cc2ncnc(C3CCN(C(=O)c4ccc(COC(F)(F)F)cc4)CC3)c2cc1OC [Example 5, [4-(6,7-Dimethoxyquinazolin-4-yl)piperidin-1-yl]{4-[(trifluoromethoxy)methyl]phenyl}methanone]",1140
3,"COc1cc2ncnc(C3CCN(C(=O)c4ccccc4)CC3)c2cc1OC [Example 9, [4-(6,7-Dimethoxyquinazolin-4-yl)piperidin-1-yl](phenyl)methanone]",6170
4,"CCCCOc1ccc(C(=O)N2CCC(c3ncnc4cc(OC)c(OC)cc34)CC2)cc1 [Example 17, (4-Butoxyphenyl)[4-(6,7-dimethoxyquinazolin-4-yl)piperidin-1-yl]methanone]",111
5,"COc1cc2ncnc(C3CCN(C(=O)c4ccc(C(C)C)cc4)CC3)c2cc1OC [Example 18, [4-(6,7-Dimethoxyquinazolin-4-yl)piperidin-1-yl][4-(propan-2-yl)phenyl]-methanone]",358
6,"COc1cc2ncnc(C3CCN(C(=O)c4ccc(COCC(F)(F)F)cc4)CC3)c2cc1OC [Example 21, [4-(6,7-Dimethoxyquinazolin-4-yl)piperidin-1-yl]{4-[(2,2,2-trifluoroethoxy)methyl]phenyl}-methanone]",2660
7,"COCCOc1ccc(C(=O)N2CCC(c3ncnc4cc(OC)c(OC)cc34)CC2)cc1 [Example 24, [4-(6,7-Dimethoxyquinazolin-4-yl)piperidin-1-yl][4-(2-methoxyethoxy)phenyl]-methanone]",9660
8,"COc1cc2ncnc(C3CCN(C(=O)c4ccc(OC(C)(C)C)cc4)CC3)c2cc1OC [Example 25, (4-Tert-butoxyphenyl)[4-(6,7-dimethoxyquinazolin-4-yl)piperidin-1-yl]methanone]",1030
9,"C=CCOc1ccc(C(=O)N2CCC(c3ncnc4cc(OC)c(OC)cc34)CC2)cc1 [Example 27, [4-(6,7-Dimethoxyquinazolin-4-yl)piperidin-1-yl][4-(prop-2-en-1-yloxy)phenyl]-methanone]",401
10,"N#Cc1ccc2c(C3CCN(C(=O)c4ccc(OC(F)(F)F)cc4)CC3)ncnc2c1 [Example 34, 4-{1-[4-(Trifluoromethoxy)benzoyl]piperidin-4-yl}quinazoline-7-carbonitrile]",506
11,"Nc1ccc2c(C3CCN(C(=O)c4ccc(OC(F)(F)F)cc4)CC3)ncnc2c1 [Example 37, [4-(7-Aminoquinazolin-4-yl)piperidin-1-yl][4-(trifluoromethoxy)phenyl]-methanone]",867
12,"CC(=O)Nc1ccc2c(C3CCN(C(=O)c4ccc(OC(F)(F)F)cc4)CC3)ncnc2c1 [Example 38, N-(4-{1-[4-(Trifluoromethoxy)benzoyl]piperidin-4-yl}quinazolin-7-yl)acetamide]",1270
13,"CS(=O)(=O)Nc1ccc2c(C3CCN(C(=O)c4ccc(OC(F)(F)F)cc4)CC3)ncnc2c1 [Example 39, N-(4-{1-[4-(Trifluoromethoxy)benzoyl]piperidin-4-yl}quinazolin-7-yl)methane-sulfonamide]",351
14,"CN(C)C(=O)c1ccc2c(C3CCN(C(=O)c4ccc(OC(F)(F)F)cc4)CC3)ncnc2c1 [Example 42, N,N-Dimethyl-4-{1-[4-(trifluoromethoxy)benzoyl]piperidin-4-yl}quinazoline-7-carboxamide]",980
15,"O=C(c1ccc2c(C3CCN(C(=O)c4ccc(OC(F)(F)F)cc4)CC3)ncnc2c1)N1CCCC1 [Example 43, Pyrrolidin-1-yl(4-{1-[4-(trifluoromethoxy)benzoyl]piperidin-4-yl}quinazolin-7-yl)methanone]",1590
16,"O=C(c1ccc2c(C3CCN(C(=O)c4ccc(OC(F)(F)F)cc4)CC3)ncnc2c1)N1CCOCC1 [Example 44, Morpholin-4-yl(4-{1-[4-(trifluoromethoxy)benzoyl]piperidin-4-yl}quinazolin-7-yl)methanone]",2240
17,"O=C(Nc1ccccc1)c1ccc2c(C3CCN(C(=O)c4ccc(OC(F)(F)F)cc4)CC3)ncnc2c1 [Example 45, N-Phenyl-4-{1-[4-(trifluoromethoxy)benzoyl]piperidin-4-yl}quinazoline-7-carboxamide]",3260
18,"CC(C)COc1ccc2c(C3CCN(C(=O)c4ccc(OC(F)(F)F)cc4)CC3)ncnc2c1 [Example 46, {4-[7-(2-Methylpropoxy)quinazolin-4-yl]piperidin-1-yl}[4-(trifluoromethoxy)-phenyl]methanone]",293
19,"O=C(c1ccc(OC(F)(F)F)cc1)N1CCC(c2ncnc3cc(N4CCCCC4=O)ccc23)CC1 [Example 55, 1-(4-{1-[4-(Trifluoromethoxy)benzoyl]piperidin-4-yl}quinazolin-7-yl)piperidin-2-one]",1300
20,"O=C(c1ccc(OC(F)(F)F)cc1)N1CCC(c2ncnc3ccccc23)CC1 [Example 58, [4-(Quinazolin-4-yl)piperidin-1-yl][4-(trifluoromethoxy)phenyl]methanone]",1680
21,"COc1ccc2c(C3CCN(C(=O)c4ccc(OC(F)(F)F)cc4C)CC3)ncnc2c1 [Example 61, [4-(7-Methoxyquinazolin-4-yl)piperidin-1-yl][2-methyl-4-(trifluoromethoxy)-phenyl]methanone]",504

# Results, then the molecule that gave them:
row,IC50 [nM],Compound
1,93.1,"COc1cc2ncnc(C3CCN(C(=O)c4ccc(OC(F)(F)F)cc4F)CC3)c2cc1OC [Example 2, [4-(6,7-Dimethoxyquinazolin-4-yl)piperidin-1-yl][2-fluoro-4-(trifluoromethoxy)phenyl]methanone]"
2,190,"COc1cc2ncnc(C3CCN(C(=O)c4ccc(Br)cc4)CC3)c2cc1OC [Example 12, (4-Bromophenyl)[4-(6,7-dimethoxyquinazolin-4-yl)piperidin-1-yl]methanone]"
3,159,"COc1cc2ncnc(C3CCN(C(=O)c4ccc(SC(F)(F)F)cc4)CC3)c2cc1OC [Example 16, [4-(6,7-Dimethoxyquinazolin-4-yl)piperidin-1-yl]{4-[(trifluoromethyl)sulfanyl]-phenyl}methanone]"
4,165,"COc1cc2ncnc(C3CCN(C(=O)c4ccc(OC(F)F)cc4)CC3)c2cc1OC [Example 19, [4-(Difluoromethoxy)phenyl][4-(6,7-dimethoxyquinazolin-4-yl)piperidin-1-yl]methanone]"
5,281,"CCCc1ccc(C(=O)N2CCC(c3ncnc4cc(OC)c(OC)cc34)CC2)cc1 [Example 20, [4-(6,7-Dimethoxyquinazolin-4-yl)piperidin-1-yl](4-propylphenyl)methanone]"
6,88.5,"COc1cc2ncnc(C3CCN(C(=O)c4ccc(OC(F)(F)F)c(F)c4)CC3)c2cc1OC [Example 22, [4-(6,7-Dimethoxyquinazolin-4-yl)piperidin-1-yl][3-fluoro-4-(trifluoromethoxy)phenyl]methanone]"
7,253,"NC(=O)c1ccc2c(C3CCN(C(=O)c4ccc(OC(F)(F)F)cc4)CC3)ncnc2c1 [Example 33, 4-{1-[4-(Trifluoromethoxy)benzoyl]piperidin-4-yl}quinazoline-7-carboxamide]"
8,192,"O=C(c1ccc(OC(F)(F)F)cc1)N1CCC(c2ncnc3cc(O)ccc23)CC1 [Example 36, [4-(7-Hydroxyquinazolin-4-yl)piperidin-1-yl][4-(trifluoromethoxy)phenyl]-methanone]"
9,224,"O=C(c1ccc(OC(F)(F)F)cc1)N1CCC(c2ncnc3cc(Br)ccc23)CC1 [Example 40, [4-(7-Bromoquinazoline-4-yl)piperidin-1-yl][4-(trifluoromethoxy)phenyl]-methanone]"
10,270,"O=C(c1ccc(OC(F)(F)F)cc1)N1CCC(c2ncnc3cc(OCC4COC4)ccc23)CC1 [Example 48, {4-[7-(Oxetan-3-ylmethoxy)quinazolin-4-yl]piperidin-1-yl}[4-(trifluoromethoxy)-phenyl]methanone]"
11,198,"CN(C)CCOc1ccc2c(C3CCN(C(=O)c4ccc(OC(F)(F)F)cc4)CC3)ncnc2c1 [Example 56, Formic Acid—(4-{7-[2-(dimethylamino)ethoxy]quinazolin-4-yl}piperidin-1-yl)[4-(trifluoromethoxy)phenyl]methanone (1:1)]"
12,274,"COc1ccc2c(C3CCN(C(=O)c4ccc(OC(F)(F)F)c(C)c4)CC3)ncnc2c1 [Example 62, [4-(7-Methoxyquinazolin-4-yl)piperidin-1-yl][3-methyl-4-(trifluoromethoxy)-phenyl]methanone]"
13,274,"CC(C)(O)COc1ccc2c(C3CCN(C(=O)c4ccc(OC(F)(F)F)cc4)CC3)ncnc2c1 [Example 63, {4-[7-(2-Hydroxy-2-methylpropoxy)quinazolin-4-yl]piperidin-1-yl}[4-(trifluoro-methoxy)phenyl]-methanone]"

# System: SN12C-MEF2-luc (clone #37) reporter cell line
# Experiment: Luciferase reporter assay in SN12C-MEF2-luc cells (EGF-stimulated, MEF2-responsive luciferase);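 also: serially diluted compounds at 37 °C, EGF with DMSO as maximum signal and EGF with a 10 µM reference inhibitor as minimum (full inhibition)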
# Assay type: cell-based
# Conditions: Homo sapiens, 16 h compound incubation, then EGF 100 ng/ml for 2 h, ONE-Glo luminescence
row,Compound,IC50 [nM]
1,"COc1cc2ncnc(C3CCN(C(=O)c4ccc(COC(F)(F)F)cc4)CC3)c2cc1OC [Example 5, [4-(6,7-Dimethoxyquinazolin-4-yl)piperidin-1-yl]{4-[(trifluoromethoxy)methyl]phenyl}methanone]",11300
2,"CCCCOc1ccc(C(=O)N2CCC(c3ncnc4cc(OC)c(OC)cc34)CC2)cc1 [Example 17, (4-Butoxyphenyl)[4-(6,7-dimethoxyquinazolin-4-yl)piperidin-1-yl]methanone]",13100
3,"COc1cc2ncnc(C3CCN(C(=O)c4ccc(OC(C)(C)C)cc4)CC3)c2cc1OC [Example 25, (4-Tert-butoxyphenyl)[4-(6,7-dimethoxyquinazolin-4-yl)piperidin-1-yl]methanone]",6830
4,"C=CCOc1ccc(C(=O)N2CCC(c3ncnc4cc(OC)c(OC)cc34)CC2)cc1 [Example 27, [4-(6,7-Dimethoxyquinazolin-4-yl)piperidin-1-yl][4-(prop-2-en-1-yloxy)phenyl]-methanone]",4910
5,"CN1CCN(c2cnc3c(C4CCN(C(=O)c5ccc(OC(F)(F)F)cc5N)CC4)ncnc3c2)CC1 [Example 81, [2-Amino-4-(trifluoromethoxy)phenyl]{4-[7-(4-methylpiperazin-1-yl)pyrido[3,2-d]pyrimidin-4-yl]piperidin-1-yl}methanone]",115

# Second part, the molecule after the results:
row,IC50 [nM],Compound
1,935,"COc1cc2ncnc(C3CCN(C(=O)c4ccc(OC(F)(F)F)cc4F)CC3)c2cc1OC [Example 2, [4-(6,7-Dimethoxyquinazolin-4-yl)piperidin-1-yl][2-fluoro-4-(trifluoromethoxy)phenyl]methanone]"
2,1720,"COc1cc2ncnc(C3CCN(C(=O)c4ccc(SC(F)(F)F)cc4)CC3)c2cc1OC [Example 16, [4-(6,7-Dimethoxyquinazolin-4-yl)piperidin-1-yl]{4-[(trifluoromethyl)sulfanyl]-phenyl}methanone]"
3,1230,"COc1cc2ncnc(C3CCN(C(=O)c4ccc(OC(F)(F)F)c(F)c4)CC3)c2cc1OC [Example 22, [4-(6,7-Dimethoxyquinazolin-4-yl)piperidin-1-yl][3-fluoro-4-(trifluoromethoxy)phenyl]methanone]"
